Results: patent publication US4062731A, “Production of uricase from micrococcus luteus” (Eastman Kodak Company, priority 1976, dated 1977)

Biological target: uricase from Micrococcus luteus NRRL B-8166
Assay: Spectrophotometric uricase assay (disappearance of uric acid at 290 nm)
Type: biochemical
Settings: assay in 50 mM KPi buffer pH 8.6, 30° C; read-out: inhibition constant for oxonate
Procedure: Uricase was assayed spectrophotometrically by following the disappearance of uric acid at 290 nm using a modification of the procedure described by Mahler et. al, J. Biol. Chem., p. 625, 216 (1955). Assay tubes contained 2.7 ml 50 mM KPi buffer pH 8.6, 0.1 mM sodium EDTA, 0.05 ml 6 mM urate, plus enzyme and water to give a final volume of 3.0 ml. Changes or additions to the assay mixtures were made when necessary. Tubes were incubated for 5 minutes at 30° C; the reaction was started by adding enzyme. Molar extinction coefficient for uric acid at 290 nm is 12,300. Activity was expressed in units of uricase activity, where a unit is that amount of enzyme which catalyzes the oxidation of one μmole of uric acid per minute at 30° C and pH 8.6.

O=C(O)c1nc(=O)[nH]c(=O)[nH]1 [oxonate]
Ki: 4.5 µM
